“Also recorded” adds a separate entry of the source.

For data set [1], the target named is T1, VEGF-C binding to the extracellular domain of VEGFR-3 (Homo sapiens, UniProt P49767).
T1 construct: expressed in transfected cells; host or cells: Ba/F3 cells (BA/F3-VEGFR-3/EpoR)
T1 sequence (P49767 112-227 limits assumed): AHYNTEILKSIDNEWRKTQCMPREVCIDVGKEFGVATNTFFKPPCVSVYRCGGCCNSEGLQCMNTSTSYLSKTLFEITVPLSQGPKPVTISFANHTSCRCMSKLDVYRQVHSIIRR
The data set is described as follows: Ba/F3-VEGFR-3/EpoR bioassay of VEGF-C binding. The format is cell-based. Conditions: [3H]thymidine incorporation, 48 hrs. On the procedure: (§1) The binding of VEGF-C to the extracellular domain of VEGFR-2 or VEGFR-3 was measured using BA/F3-VEGFR-2 or -3/EpoR cells. The response to ligands and VGX-100 was measured by [^3H]-thymidine incorporation following exposure for 48 hrs.
(§2) Bioassays to measure the binding of VEGF-C to the extracellular domain of VEGFR-2 or VEGFR-3 were performed with BA/F3-VEGFR-2 or BA/F3-VEGFR-3/EpoR cells. The response to ligands and VGX-100 was measured by [^3H] thymidine incorporation following exposure for 48 hrs.
A general note: Incorporation of labelled thymidine or its analogues reports DNA synthesis.

The target of data set [2] is T2, VEGF-C binding to the extracellular domain of VEGFR-2 (Homo sapiens, UniProt P49767).
T2 construct: expressed in transfected cells; host or cells: Ba/F3 cells (BA/F3-VEGFR-2)
T2 sequence (P49767 112-227 limits assumed): T1 sequence (P49767 112-227 limits assumed)
The data set is described as follows: Ba/F3-VEGFR-2 bioassay of VEGF-C binding. The format is cell-based. Conditions: [3H]thymidine incorporation, 48 hrs. On the procedure:
as §1, §2

Data set [3] deals with U87MG glioblastoma tumors (xenograft). The data set is described as follows: U87MG glioblastoma xenograft, single agent (Example 6).
Protocol: Antibodies were administered twice per week by intraperitoneal injection.
To initiate the study, 5×10^6 of U-87 cells suspended in 100 μl of a mixture of medium/Matrigel (1:1) were subcutaneously implanted to the nude mice in the right flank region. Cancer cells were planted into 80 mice. Animals were monitored for tumor growth daily after cell implantation. When tumor volumes reached 80-100 mm^3, mice were randomized into 5 groups of 10 mice each using only mice having tumor volumes closest to the mean value. Mice with tumor volumes too big or too small were excluded from the study. Tumor volumes were measured using the formula V=L×W×H×π/6, where L and W represented the longer and shorter diameters of the tumor and H represented the height of the tumor. The treatment with drugs was initiated on the day after randomization. […] The treatment was carried out twice weekly for 27 days. Throughout the entire study, tumor volumes were measured twice weekly and body weights once weekly. […] Unscheduled sacrifices were performed if tumor volumes reached>1,500 mm^3, animals lost>25% of their original body weights, tumor ulceration appeared, or mice became moribund.
Data set [4] deals with U87MG human glioblastoma tumors. The data set is described as follows: U87MG glioblastoma xenograft, combination (Example 7). The format is in vivo, nude mice. Conditions: VGX-100 40 mg/kg, bevacizumab 10 mg/kg, administered alone. On the procedure: This experiment was conducted broadly in accordance with Example 3, except that U87MG glioblastoma cells were substituted for PC-3 prostate cancer cells. Cells from a human glioblastoma tumor line (U87MG) were implanted subcutaneously into mice and grown until the tumors reached an average size of approximately 150 mg. […] There were 10 animals per treatment group.

Data set [5] addresses T3, VEGF-C (Homo sapiens, UniProt P49767).
T3 construct: purchased R&D Systems
T3 sequence (P49767 112-227): T1 sequence (P49767 112-227 limits assumed)
The experiment in a line: Direct binding ELISA / BiaCore affinity of VGX-100. The note with it: capture antigens VEGF-C, VEGF-D or VEGF. On the procedure:
VEGF-C antibody VGX-100 was assessed by a direct binding ELISA using VEGF-C, VEGF-D or VEGF (R&D Systems) as capture antigens and bound VGX-100 detected with rabbit anti-human IgG-HRP (Abcam).
(In an ELISA, binding on a coated surface is turned into a signal by an enzyme label.)

The subject of data set [6] is PC-3 human prostate tumors (xenograft). The experiment in a line: Subcutaneous PC-3 xenograft, single therapy (Example 2). The class given is in vivo, nude mice. On the procedure:
Cells were implanted into 80 mice. […] The treatment with drugs began on the day after randomization. […] At the end of the experiment, statistical analysis was performed on the tumor growth rate of each treatment group versus that of the control.

Data set [7] concerns PC-3-GFP human prostate tumors. The data set is described as follows: PC-3-GFP orthotopic MetaMouse model (Example 13). The format is in vivo. On the procedure:
PC-3-GFP human prostate cancer orthotopic MetaMouse® model was conducted by AntiCancer Inc. PC-3-GFP tumor fragments were surgically implanted between the ventral lobes of the prostate and closed by suture. Treatment was started three days after surgery (60 mg/kg, 3×/week, IP). Whole body imaging of GFP-expressing tumors was performed once a week in live animals after GFP-visible tumors were established. Primary tumor sizes were estimated once a week by caliper measurement and tumor volume (mm^3) calculated by the formula (L×W2)/2. Details of the study are as follows:
Male NCr nu/nu mice, 5-6 weeks old, were used in the study. Original breeding pairs were purchased from Taconic, Germantown, N.Y. Test animals were bred and maintained in a HEPA filtered environment for the experiment. Cages, food and bedding were autoclaved. The animal diets were obtained from PMI Nutrition International Inc. (Brentwood, Mo.).
Vehicle, VGX-100 and Isotype were kept at −20° C. until use. VGX-100 and Isotype were diluted with PBS to proper concentration (7.5 mg/ml and 7.5 mg/ml) before use.
Tumor stocks were made by subcutaneously injecting PC-3-GFP cells at a concentration of 5×10^6 cells/100 μl into the flank of nude mice. The tumor tissues harvested from s.c. growth in nude mice were inspected and any grossly necrotic or suspected necrotic or non-GFP tumor tissues were removed. Tumor tissues were subsequently cut into small fragments of approximately 1 mm^3.
The animals were anesthetized with the mixture of Ketaset, Xylazine and PromAce and the surgical area was sterilized using iodine and alcohol. An incision approximately 2 cm long was made in the lower abdomen of the nude mouse using a sterile scalpel and blade (#10). The prostate was exposed and the capsule of the prostate was carefully opened. Two fragments (1 mm^3 each) of PC-3-GFP tissue were sutured between two ventral lobes of the prostate with sterile 8-0 surgical suture (nylon). The abdomen was closed in one layer with sterile 6-0 surgical sutures (silk). All procedures were carried out under a 5× dissecting microscope under HEPA filtered laminar flow hoods.
Treatment in both groups was started three days after SOI.
The FluorVivo imaging system (INDEC Biosystems, Santa Clura, Calif.) was used for whole body imaging. Whole body optical imaging of GFP-expressing tumors was performed once a week in live animals after GFP-visible tumors were established. At necropsy, open imaging was performed in the thoracic and abdomen for inspection of metastasis to the lymph nodes.
Tumor size and body weight measurement: Primary tumor sizes and body weights were measured once a week by using a calipers and an electronic scale, respectively. Primary tumor sizes were estimated once a week by measuring the perpendicular minor dimension (W) and major dimension (L). Approximate tumor volume (mm^3) was calculated by the formula (W2×L)×1/2.
All the animals were sacrificed at day 30 after treatment initiation.
Primary tumor was excised and weighed at necropsy.
The Student's t-test with α equal to 0.05 was used to compare the mean tumor volume and tumor weight among the experimental groups.

Setting [8] is: VGX-100 10 and 20 mg/kg IP twice weekly.

Consider “VGX-100: VEGF-C antibody; heavy chain SEQ ID NO: 3, light chain SEQ ID NO: 4”, for which the “Blocking of VEGF-C binding to VEGFR-3” value in data set [1] is listed as “blocked VEGF-C binding”. Besides, the “Blocking of VEGF-C binding to VEGFR-2” value in data set [2] is given as “blocked VEGF-C binding”. Besides, the “Tumor growth vs vehicle control” value in data set [3] (VGX-100 40 mg/kg IP twice weekly) is on record as “significantly inhibited tumor growth”. Further, the “Tumor volume response” value in data set [3] (setting [8]) is “improved over the negative control”; in data set [6] (VGX-100 40 mg/kg IP twice weekly, 40 mg/kg) it was “significant single-agent activity; also recorded: efficacy equivalent to bevacizumab at 10 mg/kg”; in data set [6] (setting [8]), “improved over the negative control”. The “Effect on tumor growth” value in data set [4] is “no significant effect”. Besides, the “Binding selectivity in direct binding ELISA” value in data set [5] is “selectively recognized and bound to VEGF-C”. Further, the “Reduction of incidence of metastasis to local lymph nodes vs control” value in data set [7] (60 mg/kg IP) is 55%. The “Toxicity / body weight” value in data set [7] (60 mg/kg IP 3x/week) was “no obvious toxicity; also recorded: No acute body weight loss”. Besides, the “Metastatic incidence to lymph nodes vs control” value in data set [7] (FOTI, Fisher's exact test) is listed as “significant difference in metastatic incidence”. The “# of animals with lymph node (LN) mets” value in data set [7] (FOTI, of 19 analyzed animals, 60 mg/kg IP) is listed as 6. Also, in data set [7] (FOTI, 60 mg/kg IP), the “Animals with lymph node (LN) mets, percent” value was determined as 32%. In data set [7] (day 28), the “Tumor volume vs isotype control” value is listed as “statistically significant reduction”. Further, the “Reduction of mean tumor volume vs isotype control” value in data set [7] (day 28, 60 mg/kg IP) is listed as 59%. In data set [7] (day 28 after treatment, caliper, 60 mg/kg IP 3x/week), the “Mean tumor volume (mm^3) mean ± SE” value came out at 176.8 ± 183.2 mm^3. Besides, in data set [7] (day 30), the “Tumor weight vs isotype control” value is recorded as “A statistically significant reduction was not observed”. Also, the “Mean tumor weight (g) mean ± SE” value in data set [7] (day 30 after treatment, 60 mg/kg IP) came out at 0.95 ± 0.45 g.
